The values below come from patent US8691498B2, “Methods of screening for a compound that reduces atherogenesis” (Arena Pharmaceuticals, Inc., priority 2005, dated 2014).

Assay [1] concerns the target GPR88 (Homo sapiens, UniProt Q9GZN0). The experiment in a line: EC50 at GPR88 (selectivity, data not shown). Type of assay: cell-based. To be noted: for EC50: not shown; for selectivity for GPR84 over GPR88: concluded from EC50 at GPR84 and GPR88.
For assay [2], the target named is T1, GPR84 (Homo sapiens, UniProt Q9NQS5). Kind of assay: Cyclase (cAMP Flashplate) assay in 293 cells transfected with GPR84. Type of assay: cell-based. To be noted: 1 hr treatment. The source says:
Thyroid-stimulating hormone (TSH, or thyrotropin) receptor (TSHR) causes the accumulation of intracellular cAMP on activation by its ligand TSH. An effective technique for measuring the decrease in production of cAMP corresponding to activation of a Gi-coupled receptor is to co-transfect TSHR with the Gi-coupled receptor and to carry out the assay in the presence of TSH to raise the level of basal cAMP, whereby TSHR acts as a “signal window enhancer.” Such an approach was used here. Cyclase assay of GPR84 activity was carried out. 293 cells were transfected with either vector alone or vector containing polynucleotide encoding GPR84.

For assay [3], the system named is ABCA1 mRNA in human macrophage. Kind of assay: Steady-state ABCA1 mRNA level in human macrophage (TaqMan). In kind it is cell-based. To be noted: human monocyte-derived macrophage, 24 hours. How it is done: Macrophages were derived from monocytes as previously indicated. […] Vehicle was dimethyl sulfoxide (DMSO); the final concentration of DMSO in the culture was 0.1% (v/v). Total RNA was extracted from the cells and analyzed by TaqMan analysis as previously indicated to assess steady-state ABCA1 mRNA level. Data are the average and SD of three replicates. The qPCR reactions were prepared from the cDNA using the Bio-Rad qPCR kit, following the manufacturer's protocol. The qPCR reactions were performed using the ABI Prism 7900HT machine with the following temperatures and times: 50° C.—2 min, 95° C.—10 min followed by 40 cycles of 95° C.—15 sec and 60° C.—1 min.
On the technique in general: In qPCR the cycle at which signal appears reflects the starting amount.

For assay [4], the system named is MCP-1 mRNA in human macrophage. The experiment in a line: Steady-state MCP-1 mRNA level in human macrophage (microarray). In kind it is cell-based. The note with it: 10 μM, 24 hours. On the procedure:
(§1) Human peripheral blood monocytes were isolated from buffy coat by dextran and ficoll purification. Monocytes were then purified using a monocyte isolation kit from Miltenyi Biotec. Monocytes were cultured for 7 days with 10 ng/ml GM-CSF to derive macrophage cells. […] MCP-1 and IL-8 steady-state mRNA levels were assessed by microarray analysis. Vehicle was dimethyl sulfoxide (DMSO); the final concentration of DMSO in the culture was 0.1% (v/v). Expression levels are the average and SD of two replicates.

Assay [5] relates to IL-8 mRNA in human macrophage. The experiment in a line: Steady-state IL-8 mRNA level in human macrophage (microarray). In kind it is cell-based. To be noted: 10 μM, 24 hours. How it is done: as §1
Assay [6] has as its system TNFα secretion by human macrophage. The experiment in a line: TNFα secretion by human macrophage (ELISA). Type of assay: cell-based. The note with it: 10 μM for 24 hrs, absence or presence of LPS. How it is done:
Human peripheral blood monocytes were isolated from buffy coat by dextran and ficoll purification. Monocytes were then purified using a monocyte isolation kit from Miltenyi Biotec. Monocytes were cultured for 7 days with 10 ng/ml GM-CSF to derive macrophage cells. […] Vehicle was dimethyl sulfoxide (DMSO); the final concentration of DMSO in the culture was 0.1% (v/v). Cells were then stimulated with the indicated concentrations of LPS for 24 hours. Supernatants were collected and TNFα levels were assayed using a human specific TNFα ELISA kit from Biosource.
(In general: In an ELISA, binding on a coated surface is turned into a signal by an enzyme label.)

Assay [7] concerns TNFα secretion by mouse macrophage cell line RAW. Kind of assay: TNFα secretion by mouse macrophage cell line RAW (ELISA). In kind it is cell-based. To be noted: RAW cells, 1 μM for 24 hours, absence or presence of LPS. On the procedure: RAW cells were cultured to subconfluency. […] Vehicle was dimethyl sulfoxide (DMSO); the final concentration of DMSO in the culture was 0.1% (v/v). Cells were then stimulated with the indicated concentrations of LPS for 24 hours. Supernatants were collected and TNFα levels were assayed using a mouse specific TNFα ELISA kit from Biosource.

The target of assay [8] is T1, GPR84. The experiment in a line: IP3 assay in 293 cells transfected with GPR84, with or without Gq(del)/Gi chimeric G protein. The note with it: 293 cells comprising Gq(del)/Gi chimeric G protein, 10 μM, 3 hrs. Also on record: expressed in transfected cells; host or cells: 293 cells comprising or not comprising Gq(del)/Gi. In kind it is cell-based. On the procedure:
IP3 Assay of GPR84 activity was carried out. 293 cells were transfected with either vector alone or vector containing polynucleotide encoding GPR84. […] 24 hrs after transfection, cells were plated into 96 well plates, labeled overnight with ^3H-myoinositol.

Assay [9] has as its target T1, GPR84. The experiment in a line: Melanophore pigment aggregation assay, melanophores transiently transfected with human GPR84. Type of assay: cell-based. Also on record: Full-Length Cloning of Endogenous Human GPR84; expressed in transfected cells; host or cells: melanophores (transient transfection). To be noted: representative melanophore assay, one hour incubation. The source says: Melatonin activates an endogenous Gi-coupled receptor in the melanophores and causes them to aggregate their pigment. […] If the receptor were either a Gs or Gq coupled receptor, then the melatonin-aggregated melanophores would undergo pigment dispersion. In contrast, if the receptor was a Gi-coupled receptor, then the pigment-dispersed cells would be expected to undergo a dose-dependent pigment aggregation.

Assay [10] has as its system GPR84 mRNA in human monocytes. The experiment in a line: GPR84 mRNA expression in primary human monocytes (QRT-PCR). Type of assay: cell-based. The note with it: overnight. The source says: Peripheral blood leukocytes were separated from erythrocytes by sedimentation in a dextran containing saline solution. The leukocytes were washed, and mononuclear cells were isolated on a Ficoll density gradient. Peripheral blood mononuclear cells were then washed and negatively selected using a MACS® monocyte isolation kit II (Miltenyi Biotec, Auburn, Calif.) and LS MACS® cell separation columns according to manufacturer's instructions. Freshly isolated monocytes were then resuspended in culture medium alone or culture medium supplemented with TNFα (10 ng/ml) or IFNγ (10 or 100 ng/ml) and allowed to adhere to wells precoated with vitronectin. Cultures were harvested at the indicated times. GPR84 TaqMan analysis was performed essentially as described in Part A of Example 15, infra. Multiple replicates were obtained from different individual donors. Data are expressed as the mean of the ratio of the GPR84 signal to the HS9 (Human ribosomal protein S9, housekeeping gene) signal±SEM.

In assay [11] the target is T1, GPR84. Kind of assay: GTPγS binding assay with membranes from GPR84 transfected CHO-KI cells. In kind it is biochemical. To be noted: not shown. On the procedure: GTPγS assay of GPR84 activity was carried out. Membranes prepared from GPR84 transfected CHO-KI cells were dissolved in binding buffer (20 mM HEPES, pH 7.4, 100 mM NaCl, 10 mM MgCl2) and homogenized briefly using a polytron. Membrane protein concentration was determined by Bradford assay and the membranes were diluted to 0.4 mg/ml in binding buffer. […] Binding was allowed to proceed for one hour before centrifuging the plates at room temperature to pellet the membrane and subsequent counting in a TopCount scintillation counter.

Sequence of GPR88 (Q9GZN0 whole entry): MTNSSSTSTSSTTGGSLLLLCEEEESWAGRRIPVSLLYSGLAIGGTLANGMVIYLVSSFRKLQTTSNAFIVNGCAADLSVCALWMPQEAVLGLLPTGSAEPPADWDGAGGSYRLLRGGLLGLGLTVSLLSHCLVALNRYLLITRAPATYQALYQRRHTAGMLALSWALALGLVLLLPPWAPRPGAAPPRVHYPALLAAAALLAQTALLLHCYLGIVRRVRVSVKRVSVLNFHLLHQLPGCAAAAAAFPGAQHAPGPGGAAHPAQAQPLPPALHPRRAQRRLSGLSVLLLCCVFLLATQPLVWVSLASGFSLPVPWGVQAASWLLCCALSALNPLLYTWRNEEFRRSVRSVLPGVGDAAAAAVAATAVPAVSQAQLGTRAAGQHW
T1 sequence (Q9NQS5 whole entry): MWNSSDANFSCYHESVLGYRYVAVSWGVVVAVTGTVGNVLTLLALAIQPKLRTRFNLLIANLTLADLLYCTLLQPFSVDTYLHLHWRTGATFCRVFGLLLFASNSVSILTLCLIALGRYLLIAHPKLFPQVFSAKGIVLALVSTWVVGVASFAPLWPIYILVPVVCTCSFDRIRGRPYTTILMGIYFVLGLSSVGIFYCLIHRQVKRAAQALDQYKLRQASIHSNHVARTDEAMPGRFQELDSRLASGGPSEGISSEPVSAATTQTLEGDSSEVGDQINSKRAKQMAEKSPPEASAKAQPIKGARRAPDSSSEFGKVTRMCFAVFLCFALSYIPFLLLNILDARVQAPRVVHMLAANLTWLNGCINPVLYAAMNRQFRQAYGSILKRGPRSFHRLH

With `CCCCCCCCCCCC1=C(O)C(=O)C=C(O)C1=O` [Compound 1, 2,5-Dihydroxy-3-undecyl-[1,4]benzoquinone], the concentration giving a half-maximal response (EC50) in assay [1] was more than 100 µM. Moreover, the “level of intracellular cAMP” value in assay [2] is “decrease”. In addition, the “steady-state level of ABCA1 mRNA” value in assay [3] is “increase”. For the same compound, the “steady-state level of MCP-1 mRNA” value in assay [4] was “decrease”. Besides, the “steady-state level of IL-8 mRNA” value in assay [5] is recorded as “increase”. The TNFα secretion entry in assay [6] and in assay [7] was “no effect” in each case. In addition, the “level of intracellular IP accumulation” value in assay [8] is on record as “increase”.

Turning to `CCCCCC#CCC#CCC#CCC#CCCCC(=O)O` [Compound 2, Icosa-5,8,11,14-tetraynoic acid], in assay [1], the “selectivity for GPR84 over GPR88” value was “selective GPR84 agonist” and the EC50 is more than 10 µM. Further, the response in assay [9] was half-maximal at 48.2 nM (EC50).

On to `CCCCC/C=C/C/C=C/C=C/C=C/[C@@H](O)[C@@H](O)CCCC(=O)O` [Compound 3, 5S,6R-Dihydroxy-icosa-7,9,11,14-tetraenoic acid], for which, in assay [1], the “selectivity for GPR84 over GPR88” value is “selective GPR84 agonist” and the 50% effective concentration (EC50) was more than 10 µM. A half-maximal effect in assay [9] (EC50) was put at 30.8 nM.

“IFNγ: proinflammatory cytokine interferon gamma”: in assay [10] (primary monocytes, 10 or 100 ng/ml), the “GPR84 mRNA expression” value is given as “dose-dependent increase”.

For Pertussis toxin, the “effect on stimulation of GTPγS binding to membrane by Compound 1” value in assay [11] is recorded as “inhibit”.

TNFα: in assay [10] (primary human monocytes, 10 ng/ml), the “GPR84 mRNA expression” value is “significant increase”.

Usually EC50 stands for the concentration giving half of the maximal effect. High values mean a less potent agent, low ones a more potent agent.
